From patent publication US8076487B2, “Pyridone derivative and herbicide” (Kumiai Chemical Industry Co., Ltd., priority 2006, dated 2011)

Tests used:
Test in all cases: Test Example 1: herbicidal effect by soil application to paddy field
Type in all cases: in vivo
Conditions in all cases: paddy field soil application; active ingredient 1,000 g per 1 hectare; wettable powder added dropwise to water surface the day after sowing; examined on the 21st day after application
[1] = system: early watergrass (Echinochloa oryzicola Vasing)
Text: (§1) Test Example 1 Test on Herbicidal Effect by Soil Application to Paddy Field In a 100 cm2 plastic pot, paddy field soil was filled. After puddling and leveling, seeds of early watergrass (Echinochloa oryzicola […] (Monochoria vaginalis ([…] Japanese bulrush (Scirpus juncoides Roxb.) were sown, and water was filled to be flooded to a water depth of 3 cm. […] Then, on the 21st day after the application to the plants grew in a greenhouse, the herbicidal effect was examined in accordance with a standard shown in Table 34. [table]

[2] = system: heartshape false pickerelweed (Monochoria vaginalis (Burm.f.) C.Presl)
Text: as §1

[3] = system: Japanese bulrush (Scirpus juncoides Roxb.)
Text: as §1

Row | Compound | herbicidal effect, Echinochloa oryzicola Vasing [1] | herbicidal effect, Monochoria vaginalis (Burm. f.) C. Presl [2] | herbicidal effect, Scirpus juncoides Roxb. [3]
1 | CC(C)c1ccc(C(=O)C2=C(O)CCCC2=O)c(=O)n1-c1ccccc1 [I-232] | 5 (90% or more of herbicidal effect and crop phytotoxicity) | 5 (90% or more of herbicidal effect and crop phytotoxicity) | 5 (90% or more of herbicidal effect and crop phytotoxicity)
2 | Cc1ccc(C(=O)C2=C(O)CCCC2=O)c(=O)n1-c1cccc(C(F)(F)F)c1 [I-235] | 5 (90% or more of herbicidal effect and crop phytotoxicity) | 5 (90% or more of herbicidal effect and crop phytotoxicity) | 5 (90% or more of herbicidal effect and crop phytotoxicity)
3 | Cc1ccc(C(=O)C2=C(O)CCCC2=O)c(=O)n1-c1ccc(C(F)(F)F)cc1 [I-236] | 5 (90% or more of herbicidal effect and crop phytotoxicity) | 5 (90% or more of herbicidal effect and crop phytotoxicity) | 5 (90% or more of herbicidal effect and crop phytotoxicity)
4 | CC1CCC(=O)C(C(=O)c2ccc(C(F)(F)F)n(C)c2=O)=C1O (stereo not drawn) [II-1] | 5 (90% or more of herbicidal effect and crop phytotoxicity) | 5 (90% or more of herbicidal effect and crop phytotoxicity) | 5 (90% or more of herbicidal effect and crop phytotoxicity)
5 | Cn1c(C(F)(F)F)ccc(C(=O)C2=C(O)C(C)(C)CCC2=O)c1=O [II-2] | 5 (90% or more of herbicidal effect and crop phytotoxicity) | 5 (90% or more of herbicidal effect and crop phytotoxicity) | 5 (90% or more of herbicidal effect and crop phytotoxicity)
6 | Cn1c(C(F)(F)F)ccc(C(=O)C2=C(Sc3ccccc3)CCCC2=O)c1=O [II-8] | 5 (90% or more of herbicidal effect and crop phytotoxicity) | 5 (90% or more of herbicidal effect and crop phytotoxicity) | 5 (90% or more of herbicidal effect and crop phytotoxicity)
7 | Cc1ccc(SC2=C(C(=O)c3ccc(C(F)(F)F)n(C)c3=O)C(=O)CCC2)cc1 [II-9] | 5 (90% or more of herbicidal effect and crop phytotoxicity) | 5 (90% or more of herbicidal effect and crop phytotoxicity) | 5 (90% or more of herbicidal effect and crop phytotoxicity)
8 | Cn1c(C(F)(F)F)ccc(C(=O)C2=C(Sc3ccccc3Cl)CCCC2=O)c1=O [II-11] | 5 (90% or more of herbicidal effect and crop phytotoxicity) | 5 (90% or more of herbicidal effect and crop phytotoxicity) | 5 (90% or more of herbicidal effect and crop phytotoxicity)
9 | Cn1c(C(F)(F)F)ccc(C(=O)C2=C(Sc3cccc(Cl)c3)CCCC2=O)c1=O [II-12] | 5 (90% or more of herbicidal effect and crop phytotoxicity) | 5 (90% or more of herbicidal effect and crop phytotoxicity) | 5 (90% or more of herbicidal effect and crop phytotoxicity)
10 | Cn1c(C(F)(F)F)ccc(C(=O)C2=C(Sc3ccc(Cl)cc3)CCCC2=O)c1=O [II-13] | 5 (90% or more of herbicidal effect and crop phytotoxicity) | 5 (90% or more of herbicidal effect and crop phytotoxicity) | 5 (90% or more of herbicidal effect and crop phytotoxicity)
11 | Cn1c(C(F)(F)F)ccc(C(=O)C2=C(Sc3c(Cl)cccc3Cl)CCCC2=O)c1=O [II-15] | 5 (90% or more of herbicidal effect and crop phytotoxicity) | 5 (90% or more of herbicidal effect and crop phytotoxicity) | 5 (90% or more of herbicidal effect and crop phytotoxicity)
12 | Cn1c(C(F)(F)F)ccc(C(=O)C2=C(Sc3c(Cl)c(Cl)c(Cl)c(Cl)c3Cl)CCCC2=O)c1=O [II-16] | 5 (90% or more of herbicidal effect and crop phytotoxicity) | 5 (90% or more of herbicidal effect and crop phytotoxicity) | 5 (90% or more of herbicidal effect and crop phytotoxicity)
13 | Cn1c(C(F)(F)F)ccc(C(=O)C2=C(n3cccn3)CCCC2=O)c1=O [II-17] | 5 (90% or more of herbicidal effect and crop phytotoxicity) | 5 (90% or more of herbicidal effect and crop phytotoxicity) | 5 (90% or more of herbicidal effect and crop phytotoxicity)
14 | Cn1c(C(F)(F)F)ccc(C(=O)C2=C(Sc3ccccc3)CC(C)(C)CC2=O)c1=O [II-19] | 5 (90% or more of herbicidal effect and crop phytotoxicity) | 5 (90% or more of herbicidal effect and crop phytotoxicity) | 5 (90% or more of herbicidal effect and crop phytotoxicity)
15 | CC(CCn1c(C(F)(F)F)ccc(C(=O)C2=C(O)C(C)CCC(C)C2=O)c1=O)=C(F)F (stereo not drawn) [II-27] | 5 (90% or more of herbicidal effect and crop phytotoxicity) | 5 (90% or more of herbicidal effect and crop phytotoxicity) | 5 (90% or more of herbicidal effect and crop phytotoxicity)
16 | COCCCn1c(C(F)(F)F)ccc(C(=O)C2=C(Sc3ccccc3)CCCC2=O)c1=O [II-30] | 5 (90% or more of herbicidal effect and crop phytotoxicity) | 5 (90% or more of herbicidal effect and crop phytotoxicity) | 5 (90% or more of herbicidal effect and crop phytotoxicity)
17 | COC1=C(C(=O)c2ccc(C(F)(F)F)n(C)c2=O)C(=O)CCC1C (stereo not drawn) [II-35] | 5 (90% or more of herbicidal effect and crop phytotoxicity) | 5 (90% or more of herbicidal effect and crop phytotoxicity) | 5 (90% or more of herbicidal effect and crop phytotoxicity)
18 | CCCS(=O)(=O)Oc1c(C(=O)c2ccc(C(F)(F)F)n(CC(C)OCc3ccccc3)c2=O)cnn1C (stereo not drawn) [IV-49] | 5 (90% or more of herbicidal effect and crop phytotoxicity) | 5 (90% or more of herbicidal effect and crop phytotoxicity) | 3 (50 to less than 70% of herbicidal effect and crop phytotoxicity)
19 | Cn1ncc(C(=O)c2ccc(C(F)(F)F)n(CC[S+](C)[O-])c2=O)c1O (stereo not drawn) [IV-52] | 4 (70 to less than 90% of herbicidal effect and crop phytotoxicity) | 4 (70 to less than 90% of herbicidal effect and crop phytotoxicity) | 4 (70 to less than 90% of herbicidal effect and crop phytotoxicity)
20 | CCCS(=O)(=O)Oc1c(C(=O)c2ccc(C(F)(F)F)n(CC[S+](C)[O-])c2=O)cnn1C (stereo not drawn) [IV-53] | 4 (70 to less than 90% of herbicidal effect and crop phytotoxicity) | 4 (70 to less than 90% of herbicidal effect and crop phytotoxicity) | 4 (70 to less than 90% of herbicidal effect and crop phytotoxicity)
21 | CSCCCn1c(C(F)(F)F)ccc(C(=O)c2cnn(C)c2O)c1=O [IV-56] | 5 (90% or more of herbicidal effect and crop phytotoxicity) | 5 (90% or more of herbicidal effect and crop phytotoxicity) | 5 (90% or more of herbicidal effect and crop phytotoxicity)
22 | CCCS(=O)(=O)Oc1c(C(=O)c2ccc(C(F)(F)F)n(CCCSC)c2=O)cnn1C [IV-57] | 5 (90% or more of herbicidal effect and crop phytotoxicity) | 5 (90% or more of herbicidal effect and crop phytotoxicity) | 2 (30 to less than 50% of herbicidal effect and crop phytotoxicity)
23 | CCCS(=O)(=O)Oc1c(C(=O)c2ccc(C(F)(F)F)n(CCC[S+](C)[O-])c2=O)cnn1C (stereo not drawn) [IV-59] | 4 (70 to less than 90% of herbicidal effect and crop phytotoxicity) | 4 (70 to less than 90% of herbicidal effect and crop phytotoxicity) | 3 (50 to less than 70% of herbicidal effect and crop phytotoxicity)
24 | Cn1ncc(C(=O)c2ccc(C(F)(F)F)n(CCCS(C)(=O)=O)c2=O)c1O [IV-60] | 5 (90% or more of herbicidal effect and crop phytotoxicity) | 5 (90% or more of herbicidal effect and crop phytotoxicity) | 5 (90% or more of herbicidal effect and crop phytotoxicity)
25 | CCCS(=O)(=O)Oc1c(C(=O)c2ccc(C(F)(F)F)n(CCCS(C)(=O)=O)c2=O)cnn1C [IV-61] | 5 (90% or more of herbicidal effect and crop phytotoxicity) | 5 (90% or more of herbicidal effect and crop phytotoxicity) | 5 (90% or more of herbicidal effect and crop phytotoxicity)
26 | COc1ccccc1-n1c(C(F)(F)F)ccc(C(=O)c2cnn(C)c2O)c1=O [IV-64] | 5 (90% or more of herbicidal effect and crop phytotoxicity) | 5 (90% or more of herbicidal effect and crop phytotoxicity) | 5 (90% or more of herbicidal effect and crop phytotoxicity)
